Columns and labels:
Type in all cases: cell-based
[1] = system: W2 (apoptosis competent) cells; assay: Apoptosis induction screen, MTT cell viability, W2 cells
Excerpt: (§1) Pro-apoptotic Bax and Bak are the essential and redundant regulators of apoptosis required for suppressing tumor growth and chemotherapeutic response. Because D3 cells are genetically deleted for Bax and Bak, there is no means to restore apoptosis in these cells, yet all apoptosis regulatory mechanisms upstream (Bcl-2, Bcl-xL, Bim, Nbk/Bik, Puma, Noxa, caspase-3, caspase-7) remain intact. […] This feature permits the use of W2 and D3 cell lines in biological screening for compounds that promote apoptosis by the criteria of killing W2 and not D3 cells. Compounds that indiscriminately kill both apoptosis-competent W2 and apoptosis-defective D3 cells are eliminated as non-specifically toxic.
(§2) W2 and D3 cells were plated in 96 and 24-well plates and incubated for 24 hours after which they were evenly spread at about 50% confluency. At this time, compounds dissolved in DMSO and diluted in growth medium (DMEM) were added to the cells at various concentrations. […] Cell viability was determined using a modification of the MTT assay, where the reduction of yellow tertazolium salt (MTT-3-(4,5-Dimethylthiazol-2-yl)-2,5) to purple formazan indicates mitochondrial activity, and thus cell viability. […] After 30 minutes incubation at 37° C., with shaking, absorbance was read at 570 nm on a Spectra MAX 250 (Molecular Devices) plate reader. Differential growth from time 0 to 48 hours was calculated. […]

[2] = system: apoptosis resistant D3 cells; assay: Time-lapse microscopy of cell division and viability, D3 cells; set-up: dose or concentration left out as unconfirmed
Protocol: (§3) In order to determine the differential impact of apoptosis induction on cell growth and viability of W2 and D3 cells, cell division and viability was monitored via time-lapse microscopy. Cells were cultured in a time-lapse chamber equipped with controlled environmental conditions. The time-lapse microscopy system consisted of an Olympus IX71 inverted microscope fitted with temperature, humidity and CO2 controlled environmental chamber (Solent Scientific, UK) and a Coolsnap ES cooled
(§4) CCD camera. Image capturing and analysis were performed using Image-Pro Plus software (Media Cybernetics, USA). Phase contrast images (100×) at multiple fields were obtained for the indicated time period. Time-lapse images were converted to movies using Image-Pro Plus software with custom modifications and a graphic data processing workstation (Dell Precision 670).
(§5) W2 and D3 cells were incubated for 48 hours in the presence of Compound I […] (FIG. 3b).

[3] = system: apoptosis competent W2 cells; assay: Time-lapse microscopy of cell division and viability, W2 cells; set-up: sensitivity of W2 cells to apoptosis: dose or concentration left out as unconfirmed
Protocol: as §3, §4, §5

[4] = system: D3 (apoptosis defective) cells; assay: Apoptosis induction screen, MTT cell viability, D3 cells; conditions: MTT assay, time 0 to 48 hours, Compound I 12 μM (FIG. 3a)
Excerpt: as §1, §2

| SMILES | apoptosis induction (positive control) ([1]; W2 and D3 cells, 0.1 μM staurosporine) | growth arrest in treated D3 cells [2] | survival of the D3 cells [2] | viability of D3 cells ([2]; at 48 hours, persisted following 72 hours) | death of W2 ([1]; MTT assay, time 0 to 48 hours, Compound I 12 μM (FIG. 3a)) | sensitivity of W2 cells to apoptosis ([3]; 48 hours) | time to induction of cell death of W2 cells (rounded and detached) ([3]; DMEM with 10% FBS, 5% CO2 at 37° C.) | growth of D3 [4] |
| --- | --- | --- | --- | --- | --- | --- | --- | --- |
| CN[C@@H]1C[C@H]2O[C@@](C)([C@@H]1OC)n1c3ccccc3c3c4c(c5c6ccccc6n2c5c31)C(=O)NC4 [staurosporine, reference compound] | induced apoptosis at comparable levels to Compound I |  |  |  |  |  |  |  |
| C=C1CC/C=C(\C)CC[C@@H]2C(C(CC3OC3(C)C)OC(C)=O)=CO[C@H](OC(C)=O)[C@@H]12 (some centres unmarked) [Compound I, 9-deacetoxyxeniculin] |  | clear indication of growth arrest | at least 72 hours | retained their viability | 50% | highly sensitive to apoptosis | 18 to 24 h | 61% |
